Drawing on PubChem BioAssay AID1963866 (Molecular Pharmacology Branch, DTP, NCI, 2024), this text covers viability, T/C and IC50 for six compounds.

For orientation: viability, T/C means the ratio of treated to control. The IC50 is the midpoint of a concentration-inhibition curve.

Each structure is given as a SMILES string.

The test has as its system PDC KRAS tumor spheroids with HUVEC/MSC, viability. As to the kind of experiment: Anticancer human tumor 349418-098-R-PDC patient-derived lung adenocarcinoma cell line growth inhibition [KRAS2]. The settings on record: for viability, T/C: stronger effect = lower value. An outline of the steps:
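KRAS-mutant tumor cells were grown as spheroids with HUVEC endothelial cells and human MSCs as stroma. Targeted agents were tested alone and with KRAS pathway inhibitors. Doses started at or near clinical Cmax, or 10 microM, descending half-log.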

Setting [1] is: curve of first compound, second compound 0.1 µM.
Where [2] appears, read: curve of first compound, second compound 0.316 µM.
Setting [3] is: curve of first compound, second compound 1 µM.
[4] abbreviates: curve of first compound, second compound 3.16 µM.
[5] abbreviates: curve of first compound, second compound 10 µM.
The mark [6] stands for this setting: second compound 0.1 µM, first compound 0.000316 µM.
[7] abbreviates: second compound 0.1 µM, first compound 0.001 µM.
Setting [8] is: second compound 0.1 µM, first compound 0.00316 µM.
The mark [9] stands for this setting: second compound 0.1 µM, first compound 0.01 µM.
[10] abbreviates: second compound 0.1 µM, first compound 0.0316 µM.
[11] abbreviates: second compound 0.1 µM, first compound 0.1 µM.
The mark [12] stands for this setting: second compound 0.316 µM, first compound 0.000316 µM.
[13] abbreviates: second compound 0.316 µM, first compound 0.001 µM.
Setting [14] is: second compound 0.316 µM, first compound 0.00316 µM.
Setting [15] is: second compound 0.316 µM, first compound 0.01 µM.
Setting [16] is: second compound 0.316 µM, first compound 0.0316 µM.
Where [17] appears, read: second compound 0.316 µM, first compound 0.1 µM.
Setting [18] is: second compound 1 µM, first compound 0.000316 µM.
Where [19] appears, read: second compound 1 µM, first compound 0.001 µM.
[20] abbreviates: second compound 1 µM, first compound 0.00316 µM.
Where [21] appears, read: second compound 1 µM, first compound 0.01 µM.
Where [22] appears, read: second compound 1 µM, first compound 0.0316 µM.
[23] abbreviates: second compound 1 µM, first compound 0.1 µM.
The mark [24] stands for this setting: second compound 3.16 µM, first compound 0.000316 µM.
[25] abbreviates: second compound 3.16 µM, first compound 0.001 µM.
The mark [26] stands for this setting: second compound 3.16 µM, first compound 0.00316 µM.
Setting [27] is: second compound 3.16 µM, first compound 0.01 µM.
Where [28] appears, read: second compound 3.16 µM, first compound 0.0316 µM.
Setting [29] is: second compound 3.16 µM, first compound 0.1 µM.
[30] abbreviates: second compound 10 µM, first compound 0.000316 µM.
[31] abbreviates: second compound 10 µM, first compound 0.001 µM.
The mark [32] stands for this setting: second compound 10 µM, first compound 0.00316 µM.
[33] abbreviates: second compound 10 µM, first compound 0.01 µM.
Setting [34] is: second compound 10 µM, first compound 0.0316 µM.
Setting [35] is: second compound 10 µM, first compound 0.1 µM.
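Further: spheroids exposed to compounds for seven days before readout.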

Regarding `CC(=O)OC12COC1CC(O)C1(C)C(=O)C(O)C3=C(C)C(OC(=O)C(O)C(NC(=O)OC(C)(C)C)c4ccccc4)CC(O)(C(OC(=O)c4ccccc4)C21)C3(C)C` (stereo unspecified), the viability, T/C (compound 0.01 µM) is 15% [middle of 5 runs]; the viability, T/C (compound 0.0316 µM) was 17.7% [middle of 5 runs]; the viability, T/C (compound 0.1 µM) is 19.3% [middle of 5 runs]; the viability, T/C (compound 0.316 µM) is 22.6% [middle of 5 runs]; the viability, T/C (compound 1 µM) is 32.3% [middle of 4 runs]; the viability, T/C (compound 3.16 µM) was 25.7% [middle of 5 runs]. Also, the IC50 (curve of compound) is below 10 nM.

As for `CN(C)C/C=C/C(=O)Nc1cc2c(Nc3ccc(F)c(Cl)c3)ncnc2cc1O[C@H]1CCOC1` + CC1OCC2(CCN(c3cnc(Sc4ccnc(N)c4Cl)c(N)n3)CC2)C1N, the IC50 under setting [1] is above 100 nM; the IC50 under setting [2] was above 100 nM; the IC50 under setting [3] is above 100 nM; the IC50 under setting [4] is above 100 nM; the IC50 under setting [5] was above 100 nM. The viability, T/C was 84.1% under setting [6]; 95.7% under setting [7]; 105% under setting [8]; 114% under setting [9]; 119% under setting [10]; 103% under setting [11]. Further, the viability, T/C under setting [12] is 106%; the viability, T/C under setting [13] is 105%; the viability, T/C under setting [14] was 109%; the viability, T/C under setting [15] is 110%; the viability, T/C under setting [16] was 117%; the viability, T/C under setting [17] was 115%. Besides, the viability, T/C under setting [18] was 92.3%; the viability, T/C under setting [19] is 111%; the viability, T/C under setting [20] was 97.4%; the viability, T/C under setting [21] was 107%; the viability, T/C under setting [22] was 116%; the viability, T/C under setting [23] was 105%. Moreover, the viability, T/C is 99.1% under setting [24]; 107% under setting [25]; 105% under setting [26]; 102% under setting [27]; 96% under setting [28]; 88.1% under setting [29]. For the same compound, the viability, T/C under setting [30] was 99.2%; the viability, T/C under setting [31] is 117%; the viability, T/C under setting [32] was 108%; the viability, T/C under setting [33] is 110%; the viability, T/C under setting [34] is 104%; the viability, T/C under setting [35] was 95.8%.

Consider `CC(C)n1nc(-c2ccc3oc(N)nc3c2)c2c(N)ncnc21` + C=CC(=O)N1CCN(c2nc(=O)n(-c3c(C)ccnc3C(C)C)c3nc(-c4c(O)cccc4F)c(F)cc23)C(C)C1, for which the IC50 is 0.827 nM under setting [1]; 0.865 nM under setting [2]; 0.551 nM under setting [3]; below 0.316 nM under setting [4]; below 0.316 nM under setting [5]. In addition, the viability, T/C reads like this: under setting [6], 87.7%; under setting [7], 42.6%; under setting [8], 17.4%; under setting [9], 9.72%; under setting [10], 7.63%; under setting [11], 6.75%. Besides, the viability, T/C is 70.5% under setting [12]; 47% under setting [13]; 19% under setting [14]; 8.07% under setting [15]; 7.39% under setting [16]; 6.37% under setting [17]. Also, the viability, T/C by setting is: under setting [18], 68%; under setting [19], 30.5%; under setting [20], 15.7%; under setting [21], 8.07%; under setting [22], 6.75%; under setting [23], 6.16%. Further, the viability, T/C under setting [24] is 37.9%; the viability, T/C under setting [25] was 35.5%; the viability, T/C under setting [26] was 10.3%; the viability, T/C under setting [27] is 7.68%; the viability, T/C under setting [28] was 6.06%; the viability, T/C under setting [29] was 6.09%. Further, the viability, T/C under setting [30] was 26.1%; the viability, T/C under setting [31] was 15.7%; the viability, T/C under setting [32] was 10.1%; the viability, T/C under setting [33] is 7.31%; the viability, T/C under setting [34] was 6.65%; the viability, T/C under setting [35] is 6.48%.

As for `CC(=O)Nc1cccc(-n2c(=O)n(C3CC3)c(=O)c3c(Nc4ccc(I)cc4F)n(C)c(=O)c(C)c32)c1`, the viability, T/C was 31.7% [middle of 5 runs] (compound 0.0001 µM); 22.2% [middle of 5 runs] (compound 0.000316 µM); 18.4% [middle of 5 runs] (compound 0.001 µM); 13.8% [middle of 5 runs] (compound 0.00316 µM); 9.89% [middle of 5 runs] (compound 0.01 µM); 7.25% [middle of 5 runs] (compound 0.0316 µM). In addition, the IC50 (curve of compound) is below 0.1 nM.

`COC(=O)c1ccc2c(C(=Nc3ccc(N(C)C(=O)CN4CCN(C)CC4)cc3)c3ccccc3)c(O)[nH]c2c1` + COc1cc2nc(C)nc(NC(C)c3cc(N)cc(C(F)(F)F)c3)c2cc1OC1CCOC1: the concentration for half-maximal inhibition (IC50) by setting is: under setting [1], 1640 nM; under setting [2], 1050 nM; under setting [3], 1370 nM; under setting [4], 587 nM; under setting [5], below 31.6 nM. The viability, T/C was 113% under setting [10]; 97.2% under setting [11]; 76.1% (second compound 0.1 µM, first compound 0.316 µM); 78.8% (second compound 0.1 µM, first compound 1 µM); 8.68% (second compound 0.1 µM, first compound 3.16 µM); 15.6% (second compound 0.1 µM, first compound 10 µM). Moreover, the viability, T/C by setting is: under setting [16], 91.2%; under setting [17], 121%; (second compound 0.316 µM, first compound 0.316 µM) 83%; (second compound 0.316 µM, first compound 1 µM) 56.8%; (second compound 0.316 µM, first compound 3.16 µM) 7.24%; (second compound 0.316 µM, first compound 10 µM) 13.5%. The viability, T/C by setting is: under setting [22], 88.9%; under setting [23], 103%; (second compound 1 µM, first compound 0.316 µM) 90.5%; (second compound 1 µM, first compound 1 µM) 64.7%; (second compound 1 µM, first compound 3.16 µM) 9.57%; (second compound 1 µM, first compound 10 µM) 11.1%. The viability, T/C is 66.5% under setting [28]; 92.8% under setting [29]; 78.2% (second compound 3.16 µM, first compound 0.316 µM); 25.8% (second compound 3.16 µM, first compound 1 µM); 5.92% (second compound 3.16 µM, first compound 3.16 µM); 0.55% (second compound 3.16 µM, first compound 10 µM). Further, the viability, T/C was 41.8% under setting [34]; 28% under setting [35]; 36.7% (second compound 10 µM, first compound 0.316 µM); 11.3% (second compound 10 µM, first compound 1 µM); 1.15% (second compound 10 µM, first compound 3.16 µM); 0.2% (second compound 10 µM, first compound 10 µM).

Turning to `Cn1nccc1Nc1nccc(-c2cc3c(s2)C(C)(C)N(CCN2CCOCC2)C3=O)n1`, the viability, T/C is 56.4% [middle of 5 runs] (compound 0.0316 µM); 40.2% [middle of 5 runs] (compound 0.1 µM); 21.2% [middle of 5 runs] (compound 0.316 µM); 14.3% [middle of 5 runs] (compound 1 µM); 7.8% [middle of 5 runs] (compound 3.16 µM); 5.9% [middle of 5 runs] (compound 10 µM). Moreover, the IC50 (curve of compound) is 52.2 nM [middle of 5 runs].
